Numbered stars: 1 amine (or outer) side, 2 acyl side, 3 side chain; on linkers, the order of the positions; unused ones are H or OH. Bridge positions count the residues as written; N and C are the ends. Square brackets hold non-standard residues; d marks the D form. Side chains are listed from the residue outwards. Peptide text beside a SMILES is read from it. * marks the point of attachment. Trp(1-Me) = Cn1cc(C[C@H](N)C(=O)O)c2ccccc21; C18 diacid = O=C(O)CCCCCCCCCCCCCCCCC(=O)*; γGlu = O=C(O)[C@H](CCC(=O)[*:2])N[*:1]; AEEA = NCCOCCOCC(=O)O; CH2 = C([*:1])[*:2]; Sar = CNCC(=O)O
system: classical complement pathway; test: In vitro haemolysis assay (inhibition of classical complement pathway); assay type: cell-based; details: human serum, sensitized sheep RBC, 30 minutes at 37° C., absorbance at 405 nm, n=>2; read-out: IC50, inhibition of hemolysis
Protocol: The in vitro effect of some of the compounds described herein was assessed by measuring their inhibitory effect of the classical complement pathway in a haemolysis assay.
Briefly, compounds described herein and reference compounds were dissolved in DMSO and diluted in Tris/Casein Assay Buffer (10 mM Tris, 145 mM NaCl, 0.5 mM MgCl2, 0.15 mM CaCl2, and 0.1% W/V casein, adjusted to pH 7.4) as 9-point serial dilutions in a 96-well plate. Sensitized sheep red blood cells (RBC) coated with rabbit anti-sheep erythrocyte antiserum (Complement Technology, Inc., TX, USA) were washed in Tris/asein Assay Buffer. 50 μL from each well of diluted compound was added to a 96-well plate containing 50 μL diluted human serum (Complement Technology, Inc., TX, USA) and incubated for 15 minutes at room temperature. The serum dilution factor was optimized for every serum batch to obtain 70-90% of maximal haemolysis using the protocol. Then 50 μL sensitized sheep RBCs were added to all wells ([…]).
After 30 minutes of incubation at 37° C. with gentle agitation, the reaction was stopped by addition of 50 μL Tris STOP Buffer per well (10 mM EDTA, 10 mM Tris, 145 mM NaCl adjusted to pH 7.4). The RBCs were then removed by centrifugation and the resulting supernatant measured for hemolysis by absorbance at 405 nm.
The response was normalized relative to a positive and negative control (vehicle) to calculate the IC50 (nM) from the concentration response curve using the 4-parameter logistic (4PL) nonlinear model for curve fitting (Table 2). All values are based on n=>2 independent determinations.

`CC[C@H](C)[C@@H]1NC(=O)[C@@H](NC(=O)[C@H](Cc2ccccc2)NC(=O)[C@H](CCC(=O)O)NC(=O)[C@H](CO)NC(C)=O)CSCSC[C@@H](C(=O)N[C@H](C(=O)NCC(=O)N[C@@H](C)C(=O)N[C@@H](CCC(=O)O)C(=O)N[C@@H](CO)C(N)=O)[C@@H](C)O)NC(=O)[C@H](CCCNC(=N)N)NC(=O)[C@H](Cc2c[nH]cn2)NC(=O)[C@H](CCC(=O)O)NC(=O)CNC(=O)[C@H](Cc2c[nH]c3ccccc23)NC(=O)[C@H](CC(=O)O)NC(=O)[C@H](CCC(N)=O)NC(=O)[C@H](Cc2cn(C)c3ccccc23)NC1=O` [Compound 1, Ac-SEF[C(1)]I[[1-Me-Trp]QDWGEHR[C(1)]TGAES-[NH2]] (Ac-SEFCI[Trp(1-Me)]QDWGEHRCTGAES-NH2; linker 4-14 via CH2) and `CC[C@H](C)[C@@H]1NC(=O)[C@@H](NC(=O)[C@H](Cc2ccccc2)NC(=O)[C@H](CCC(=O)O)NC(C)=O)CSCSC[C@@H](C(=O)N[C@H](C(=O)N[C@@H](CCC(=O)O)C(=O)N[C@@H](C)C(=O)NCCOCCOCC(=O)NCCOCCOCC(=O)N[C@@H](CCCCNC(=O)CC[C@H](NC(=O)CNC(=O)CC[C@H](NC(=O)CCCCCCCCCCCCCCCCC(=O)O)C(=O)O)C(=O)O)C(N)=O)[C@@H](C)O)NC(=O)[C@H](CCCNC(=N)N)NC(=O)[C@H](Cc2c[nH]cn2)NC(=O)[C@H](CCC(=O)O)NC(=O)CN(C)C(=O)[C@H](Cc2c[nH]c3ccccc23)NC(=O)[C@H](CC(=O)O)NC(=O)[C@H](CCC(N)=O)NC(=O)[C@H](Cc2cn(C)c3ccccc23)NC1=O` [Compound 12, Ac-EF[C(1)]I[1-Me-Trp]QDW[Sar]EHR[C(1)]TEA[Peg3][Peg3]-K([17-Carboxy-heptadecanoyl][yGlu]G[yGlu])-NH2] (Ac-EFCI[Trp(1-Me)]QDW[Sar]EHRCTEA[AEEA][AEEA]K([γGlu-Gly-γGlu-C18 diacid])-NH2; linker 3-13 via CH2) cannot be ordered by IC50: < 100 nM for the first, < 100 nM for the second.

`CC[C@H](C)[C@@H]1NC(=O)[C@@H](NC(=O)[C@H](Cc2ccccc2)NC(=O)[C@H](CCC(=O)O)NC(=O)[C@H](CO)NC(C)=O)CSCSC[C@@H](C(=O)N(C)CC(=O)N[C@@H](CCC(=O)O)C(=O)NCC(=O)N[C@@H](CCC(=O)O)C(=O)NCCOCCOCC(=O)NCCOCCOCC(=O)N[C@@H](CCCCNC(=O)CC[C@H](NC(=O)CNC(=O)CC[C@H](NC(=O)CCCCCCCCCCCCCCCCC(=O)O)C(=O)O)C(=O)O)C(N)=O)NC(=O)[C@H](CCCNC(=N)N)NC(=O)[C@H](Cc2c[nH]cn2)NC(=O)[C@H](CCC(=O)O)NC(=O)CNC(=O)[C@H](Cc2c[nH]c3ccccc23)NC(=O)[C@H](CC(=O)O)NC(=O)[C@H](CCC(N)=O)NC(=O)[C@H](Cc2cn(C)c3ccccc23)NC1=O` [Compound 2, Ac-SEF[C(1)]I[1-Me-Trp]QDWGEHR[C(1)][Sar]EGE[Peg3][Peg3]-K([17-Carboxy-heptadecanoyl][yGlu]G[yGlu])-NH2] (Ac-SEFCI[Trp(1-Me)]QDWGEHRC[Sar]EGE[AEEA][AEEA]K([γGlu-Gly-γGlu-C18 diacid])-NH2; linker 4-14 via CH2) and `CC[C@H](C)[C@@H]1NC(=O)[C@@H](NC(=O)[C@H](Cc2ccccc2)NC(=O)[C@H](CCC(=O)O)NC(=O)[C@H](CO)NC(C)=O)CSCSC[C@@H](C(=O)N(C)CC(=O)N[C@@H](CCC(=O)O)C(=O)NCCOCCOCC(=O)NCCOCCOCC(=O)N[C@@H](CCCCNC(=O)CC[C@H](NC(=O)CNC(=O)CC[C@H](NC(=O)CCCCCCCCCCCCCCCCC(=O)O)C(=O)O)C(=O)O)C(N)=O)NC(=O)[C@H](CCCNC(=N)N)NC(=O)[C@H](Cc2c[nH]cn2)NC(=O)[C@H](CCC(=O)O)NC(=O)CN(C)C(=O)[C@H](Cc2c[nH]c3ccccc23)NC(=O)[C@H](CC(=O)O)NC(=O)[C@H](CCC(N)=O)NC(=O)[C@H](Cc2cn(C)c3ccccc23)NC1=O` [Compound 7] (Ac-SEFCI[Trp(1-Me)]QDW[Sar]EHRC[Sar]E[AEEA][AEEA]K([γGlu-Gly-γGlu-C18 diacid])-NH2; linker 4-14 via CH2) cannot be ordered by IC50: < 500 nM for the first, < 500 nM for the second.

`CC[C@H](C)[C@@H]1NC(=O)[C@@H](NC(=O)[C@@H](NC(=O)[C@@H](Cc2ccc(O)cc2)NC(C)=O)[C@@H](C)CC)CSCSC[C@@H](C(=O)N[C@H](C(=O)N[C@@H](CCC(=O)O)C(=O)NCC(=O)N[C@@H](CCC(=O)O)C(=O)NCCOCCOCC(=O)N[C@@H](CCC(=O)O)C(=O)N[C@@H](CO)C(=O)N[C@@H](CCCCNC(=O)CC[C@H](NC(=O)CCCCCCCCCCCCCCCCC(=O)O)C(=O)O)C(N)=O)[C@@H](C)O)NC(=O)[C@H](CCCNC(=N)N)NC(=O)[C@H](Cc2c[nH]cn2)NC(=O)[C@H](CCC(=O)O)NC(=O)CN(C)C(=O)[C@H](Cc2c[nH]c3ccccc23)NC(=O)[C@H](CC(=O)O)NC(=O)[C@H](CCC(N)=O)NC(=O)[C@H](Cc2cn(C)c3ccccc23)NC1=O` [Compound 15, Ac-{d}YI[C(1)]I[1-Me-Trp]QDW[Sar]EHR[C(1)]TEGE[Peg3]ES-K([17-Carboxy-heptadecanoyl][yGlu])-NH2] (Ac-[dY]ICI[Trp(1-Me)]QDW[Sar]EHRCTEGE[AEEA]ESK([γGlu-C18 diacid])-NH2; linker 3-13 via CH2) and `CC[C@H](C)[C@@H]1NC(=O)[C@@H](NC(=O)[C@H](Cc2ccccc2)NC(=O)[C@@H](NC(=O)[C@H](CCC(N)=O)NC(=O)[C@H](CO)NC(=O)[C@H](CCC(=O)O)NC(C)=O)C(C)C)CSCSC[C@@H](C(=O)N[C@H](C(=O)N[C@@H](CCC(=O)O)C(=O)NCC(=O)N[C@@H](CCC(=O)O)C(=O)NCCOCCOCC(=O)NCCOCCOCC(=O)N[C@@H](CCCCNC(=O)CC[C@H](NC(=O)CNC(=O)CC[C@H](NC(=O)CCCCCCCCCCCCCCCCC(=O)O)C(=O)O)C(=O)O)C(N)=O)[C@@H](C)O)NC(=O)[C@H](CCCNC(=N)N)NC(=O)[C@H](Cc2c[nH]cn2)NC(=O)[C@H](CCC(=O)O)NC(=O)CN(C)C(=O)[C@H](Cc2c[nH]c3ccccc23)NC(=O)[C@H](CC(=O)O)NC(=O)[C@H](CCC(N)=O)NC(=O)[C@H](Cc2cn(C)c3ccccc23)NC1=O` [Compound 23, Ac-ESQVF[C(1)]I[1-Me-Trp]QDW[Sar]EHR[C(1)]TEGE[Peg3][Peg3]-K([17-Carboxy-heptadecanoyI][yGlu]G[yGlu])-NH2] (Ac-ESQVFCI[Trp(1-Me)]QDW[Sar]EHRCTEGE[AEEA][AEEA]K([γGlu-Gly-γGlu-C18 diacid])-NH2; linker 6-16 via CH2) cannot be ordered by IC50: < 250 nM for the first, < 100 nM for the second.

`CC[C@H](C)[C@@H]1NC(=O)[C@@H](NC(=O)[C@H](Cc2ccccc2)NC(=O)[C@@H](NC(=O)[C@H](CCC(N)=O)NC(=O)[C@H](CCC(=O)O)NC(=O)[C@H](CO)NC(=O)[C@H](CCC(=O)O)NC(C)=O)C(C)C)CSCSC[C@@H](C(=O)N[C@H](C(=O)N[C@@H](CCC(=O)O)C(=O)NCC(=O)N[C@@H](CCC(=O)O)C(=O)NCCOCCOCC(=O)NCCOCCOCC(=O)N[C@@H](CCCCNC(=O)CC[C@H](NC(=O)CNC(=O)CC[C@H](NC(=O)CCCCCCCCCCCCCCCCC(=O)O)C(=O)O)C(=O)O)C(N)=O)[C@@H](C)O)NC(=O)[C@H](CCCNC(=N)N)NC(=O)[C@H](Cc2c[nH]cn2)NC(=O)[C@H](CCC(=O)O)NC(=O)CN(C)C(=O)[C@H](Cc2c[nH]c3ccccc23)NC(=O)[C@H](CC(=O)O)NC(=O)[C@H](CCC(N)=O)NC(=O)[C@H](Cc2cn(C)c3ccccc23)NC1=O` [Compound 24, Ac-ESEQVF[C(1)]I[1-Me-Trp]QDW[Sar]EHR[C(1)]TEGE[Peg3][Peg3]-K([17-Carboxy-heptadecanoyl][yGlu]G[yGlu])-NH2] (Ac-ESEQVFCI[Trp(1-Me)]QDW[Sar]EHRCTEGE[AEEA][AEEA]K([γGlu-Gly-γGlu-C18 diacid])-NH2; linker 7-17 via CH2) and `CC[C@H](C)[C@@H]1NC(=O)[C@@H](NC(=O)[C@H](Cc2ccccc2)NC(=O)[C@H](C)NC(=O)[C@H](CCC(N)=O)NC(=O)[C@H](CCC(=O)O)NC(=O)[C@H](CO)NC(C)=O)CSCSC[C@@H](C(=O)N[C@H](C(=O)N[C@@H](CCC(=O)O)C(=O)NCC(=O)N[C@@H](CCC(=O)O)C(=O)NCCOCCOCC(=O)NCCOCCOCC(=O)N[C@@H](CCCCNC(=O)CC[C@H](NC(=O)CNC(=O)CC[C@H](NC(=O)CCCCCCCCCCCCCCCCC(=O)O)C(=O)O)C(=O)O)C(N)=O)[C@@H](C)O)NC(=O)[C@H](CCCNC(=N)N)NC(=O)[C@H](Cc2c[nH]cn2)NC(=O)[C@H](CCC(=O)O)NC(=O)CN(C)C(=O)[C@H](Cc2c[nH]c3ccccc23)NC(=O)[C@H](CC(=O)O)NC(=O)[C@H](CCC(N)=O)NC(=O)[C@H](Cc2cn(C)c3ccccc23)NC1=O` [Compound 25, Ac-SEQAF[C(1)]I[1-Me-Trp]QDW[Sar]EHR[C(1)]TEGE[Peg3][Peg3]-K([17-Carboxy-heptadecanoyl][yGlu]G[yGlu])-NH2] (Ac-SEQAFCI[Trp(1-Me)]QDW[Sar]EHRCTEGE[AEEA][AEEA]K([γGlu-Gly-γGlu-C18 diacid])-NH2; linker 6-16 via CH2) cannot be ordered by IC50: < 100 nM for the first, < 100 nM for the second.
